This is an account of results in patent US20160257697A1, “THIOPHENE-SUBSTITUTED TETRACYCLIC COMPOUNDS AND METHODS OFUSE THEREOF FOR THE TREATMENT OF VIRAL DISEASES” (priority 2013, published 2016).

The structures appear in SMILES notation. Where two headings read alike, the source gives them in different places.

Assay in all cases: microbe, parasite or virus in culture
What all share (assay type): cell-based, Hepatitis C virus (HCV)

Test [1] concerns HCV replicon 1AY93H. To be noted: Replicon Assay A. The method in brief: (§1)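 Cells seeded 2000/well + compound; 0.5% DMSO, 5% FBS; harvest day 3, lyse. Multiplex TaqMan RT-PCR for replicon (Neo probe) and cyclophilin RNA; amounts from Ct vs log(ng) linear regression of replicon total RNA standards.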
Test [2] concerns HCV replicon 1A. As to conditions: HCV replicon 1A, Replicon Assay A. In short, it runs like this:
as §1

Test [3] relates to HCV replicon 2B. As to conditions: Replicon Assay A. In short, it runs like this: as §1
Test [4] has as its system HCV replicon 1B. To be noted: HCV replicon 1B, Replicon Assay B. As for the experimental part: In an alternate assay (“Replicon Assay B”), 1000 cells were seeded per well in a 384-well collagen coated black plate from Greiner bio-one (Cat #781946) in 5% FBS. Inhibitors of this invention were added at 24 h post-seeding, and the plates were incubated for 3 days. Cells were subsequently lysed with Qiagen lysis buffer (Cat #1062731) to extract the RNA. HCV replicon RNA level was measured by real-time PCR using the RNA-to-CT kit from Applied Biosystem (Cat #4392656) and genotype-specific primers and probes. The amplicon was located within NS5B. […] (SEQ. ID NO. 2); the probe sequence was FAM-labeled […] (SEQ. ID NO. 3).
The real-time RT-PCR reactions were run on ABI PRISM 7900HT or Viia7 Sequence Detection System using the following program: 48° C. for 30 minutes, 95° C. for 10 minutes, 40 cycles of 95° C. for 15 sec, 60° C. for 1 minutes.
Data for replicons 1A, 1AY93H and 2B were obtained using Replicon Assay A and data for replicons 1AQ30D and 1B were obtained using Replicon Assay B.

Where [5] appears, read: read-out: 1A Y93H IC50, HCV replicon 1A Y93H.
The mark [6] stands for this setting: read-out: 2B IC50, HCV replicon 2B.
[7] abbreviates: Hepatitis C virus, read-out: 2B IC50, HCV replicon 2B.

With `COC(=O)NC(C(=O)N1CCC[C@H]1c1ncc(-c2ccc3c(c2)cc2n3C(c3ccc(CC4CC4)s3)Oc3cc(-c4cnc([C@@H]5CCCN5C(=O)[C@@H](NC(=O)OC)C(C)C)[nH]4)cc(F)c3-2)[nH]1)C1CCOC(C)(C)C1` (single isomer, unassigned) [Compound 407], the IC50 amounted to 0.258 nM in test [1] (setting [5]), 0.0017 nM in test [2], 0.26 nM in test [3] (setting [6]) and 0.0019 nM in test [4] (Hepatitis C virus).

As for `COC(=O)NC(C(=O)N1CCC[C@H]1c1ncc(-c2ccc3c(c2)cc2n3C(c3ccc(CC4CC4)s3)Oc3cc(-c4cnc([C@@H]5CCCN5C(=O)[C@@H](NC(=O)OC)C(C)C)[nH]4)cc(F)c3-2)[nH]1)C1CCOC(C)(C)C1` (single isomer, unassigned) [Compound 409], the IC50 stood at 0.746 nM in test [1] (setting [5]), 0.0017 nM in test [2], 0.181 nM in test [3] (setting [6]) and 0.0025 nM in test [4].

Take `COC(=O)N[C@H](C(=O)N1C2CC2C[C@H]1c1ncc(-c2cc(F)c3c(c2)OC(c2ccc(C4CC4)s2)n2c-3cc3cc(-c4cnc([C@@H]5CCCN5C(=O)[C@@H](NC(=O)OC)C5C[C@@H](C)O[C@@H](C)C5)[nH]4)ccc32)[nH]1)C(C)C` (single isomer, unassigned) [Compound 558]: the IC50 in test [1] (setting [5]) amounted to 0.362 nM; in test [2] it was 0.0535 nM; in test [3] (setting [6]), 1.22 nM; in test [4], 0.0358 nM.

As to `COC(=O)N[C@H](C(=O)N1CCC[C@H]1c1ncc(-c2ccc3c(c2)O[C@@H](c2cc4c(s2)CCC4)n2c-3cc3cc(-c4cnc([C@@H]5CCCN5C(=O)[C@@H](NC(=O)OC)C(C)C)[nH]4)ccc32)[nH]1)C(C)C` (single isomer, unassigned) [Compound 600], the half-maximal inhibitory concentration (IC50) in test [1] (Hepatitis C virus, read-out: 1A Y93H IC50, HCV replicon 1A Y93H) came out at 0.57 nM; in test [2] (Hepatitis C virus) it was 0.0256 nM; in test [3] (setting [7]), 1.09 nM; in test [4] (Hepatitis C virus), 0.186 nM.

As to `COC(=O)N[C@H](C(=O)N1CCC[C@H]1c1ncc(-c2ccc3c(c2)OC(c2ccc(C4CC4)s2)n2c-3c(F)c3cc(-c4cnc([C@@H]5CCCN5C(=O)[C@@H](NC(=O)OC)C(C)C)[nH]4)ccc32)[nH]1)C(C)C` (single isomer, unassigned) [Compound 606], the IC50 was determined as 0.161 nM in test [1] (setting [5]), 0.0026 nM in test [2], 0.286 nM in test [3] (setting [6]) and 0.0032 nM in test [4].

With `COC(=O)N[C@H](C(=O)N1CCC[C@H]1c1ncc(-c2ccc3c(c2)OC(c2ccc(C4CC4)s2)n2c-3cc3cc(-c4cnc([C@@H]5CCCN5C(=O)[C@@H](NC(=O)OC)C(C)C)[nH]4)ccc32)[nH]1)C(C)C` (single isomer, unassigned) [Compound 704], the IC50 in test [1] (setting [5]) turned out to be 0.45 nM; in test [2] it was 0.0029 nM; in test [3] (setting [6]) it was 1.07 nM; in test [4] (Hepatitis C virus) it was 0.0029 nM.

Turning to `COC(=O)N[C@H](C(=O)N1C[C@H](F)C[C@H]1c1cnc(-c2ccc3c(c2)cc2n3C(c3cc4ccccc4s3)Oc3cc(-c4cnc([C@@H]5C[C@@H](F)CN5C(=O)[C@@H](NC(=O)OC)C(C)C)[nH]4)ccc3-2)[nH]1)C(C)C` (single isomer, unassigned) [Compound 805], the IC50 was 0.01 nM in test [1] (setting [5]), 0.01 nM in test [2], 21.5 nM in test [3] (setting [7]) and 0.005 nM in test [4] (Hepatitis C virus).

In the case of `COC(=O)N[C@H](C(=O)N1C[C@H](F)C[C@H]1c1cnc(-c2ccc3c(c2)cc2n3C(c3cc4ccccc4s3)Oc3cc(-c4cnc([C@@H]5C[C@@H](F)CN5C(=O)[C@@H](NC(=O)OC)C(C)C)[nH]4)ccc3-2)[nH]1)C(C)C` (single isomer, unassigned) [Compound 806], the 50% inhibitory concentration (IC50) in test [1] (setting [5]) stood at 0.023 nM; in test [2] it was 0.041 nM; in test [3] (setting [6]) it was 42.9 nM; in test [4], 0.009 nM.
